The values below are quoted from earlier work in patent US20250073219A1, “NEW COMPOSITION COMPRISING IMMUNOMODULATORY DRUG” (NANEXA AB, priority 2021, published 2025).

Molecules are shown by their SMILES.

For the series the following is noted: oral, about 25 mg once daily, plasma; cited from earlier work.

As for `Nc1cccc2c1CN(C1CCC(=O)NC1=O)C2=O` (stereo not drawn) [lenalidomide, 3-(4-amino-1-3-dihydro-l-ovo-2H-isoindol-2yl)-2,6-piperidinedione], the “Cmax obtained from a dosing regimen comprising orally administering an about 25 mg dose once daily” value was “about 568 ng/ml”.
